Assay results: patent US20230056888A1, “COMPOSITIONS COMPRISING CYANIDIN-3-GALACTOSIDE FOR USE AS VASORELAXANT” (Evonik Operations GmbH, priority 2019, published 2023)
Entries after “also recorded” stand apart in the source; their conditions may differ.

How the values were obtained:
[1] = test system: nitric oxide production in mice mesenteric arteries; assay: Evaluation of NO production by DAF-FM in mesenteric arteries; type: cell-based; details: HB 50 μg/mL or 100 μg/mL; single anthocyanins 50 μg/mL; comparator acetylcholine 10^-6 M
Procedure: Production of NO was assessed as previously described (Carrizzo et al. 2016). Healthberry 865®-865 (100 μg/mL) or acetylcholine (10^-6 M) was administered to the mesenteric artery in the last 30 min of 4-amino-5-methylamino-2,7,-difluorofluorescein diacetate (DAF-FM) incubation, alone and after […] exposure to L-NAME (300 μmol/L, 30 min). Mesenteric segments were cut in 5-μm thick sections, observed under a fluorescence microscope, subsequently counterstained with haematoxylin and eosin and observed under a light microscope.
FIG. 2 D) show representative high-power micrographs of 10 μm sections of mice mesenteric arteries loaded for 2 h with […] (DAF-FM) reveal nitric oxide production after treatment with acetylcholine (Ach 10^-6 M) or HB (50 μg/mL) and after 30 min of pretreatment with L-NAME (300 μmol/L), counterstained with haematoxylin and eosin (HE). Scale bar, 50 μm. E) Semiquantitative analyses of immunoblots of mice mesenteric arteries treated with HB (100 μg/mL) alone, or HB plus Akt inhibitor or LY294002, columns are the mean±SEM of three independent experiments. Statistical analyses were performed using two-way ANOVA followed Bonferroni post-hoc test. *p<0.05; **p<0.01, ***p<0.001.
FIG. 7A-D show vascular response of phenylephrine-precontracted mice mesenteric arteries to increasing doses of a combination of anthocyanins mixed with a ratio 1:1. […]

mice mesenteric arteries = assay: Vascular reactivity of phenylephrine-precontracted mice mesenteric arteries, alone or with selective inhibitors; type: cell-based; details: for vasorelaxant effect in presence of Akt inhibitor: Akt inh 1 μM; for vasorelaxant effect in presence of Akt inhibitor / vasorelaxant effect in presence of PI3K inhibitor LY294002: 1 h; for vasorelaxant effect in presence of L-NAME (eNOS inhibitor): L-NAME 300 μM, 30 min pre-treatment; for vasorelaxant effect in presence of PI3K inhibitor LY294002: LY294002 10 μM; for direct vasorelaxant action of single anthocyanin, compared with Healthberry 865®: increasing doses 1-100 μg/mL; for vasorelaxation reached by single anthocyanin: dose-response curves 1-100 μg/mL
[2] = test system: reactive oxygen species (ROS) in mouse mesenteric arteries; assay: Total ROS production (DHE / DHR123) in mesenteric arteries stimulated with Angiotensin II; type: cell-based; details: 50 μg/mL, 1 hour pre-treatment, then Angiotensin II 15 minutes, confirmed by DHR123
Procedure: Dihydroethidium (DHE, Life Technologies) was used to evaluate production of reactive oxygen species (ROS) in mouse mesenteric arteries, as previously described. Briefly, vessels were incubated with 5 μM of DHE for 20 min and subsequently observed under a fluorescence microscope (Zeiss). Images were acquired by a digital camera system (Olympus Soft Imaging Solutions). […] After treatment, vessels were incubated with Krebs solution containing 5 μM DHR123 for 30 min at 37° C., and then washed two times with PBS prior to fluorescence measurement using a fluorescence microplate reader (TECAN infinite 200 Pro).
(§1) Vessels were pre-treated with single anthocyanins (50 μg/mL) for 1 hours and then stimulated with Angiotensin II for 15 minutes prior to the acquisition. […] Data are expressed as increase of chemiluminescence per minute.
(§2) Data are expressed as increase of chemiluminescence per minute. Statistical analysis were performed using One-way ANOVA followed Bonferroni post-hoc test.

NADPH oxidase = NADPH oxidase activity (lucigenin-enhanced chemiluminescence) in mesenteric arteries after Angiotensin II; type: cell-based, mice; details: for NADPH oxidase (NOX) activity after stimulation with Angiotensin II: single anthocyanins 50 μg/mL, smaller reduction than Healthberry 865®
Procedure: Vessels were homogenized in a buffer containing protease inhibitors (mmol/L: 20 monobasic potassium phosphate, 1 EGTA, 0.01 aprotinin, 0.01 leupeptin, 0.01 pepstatin, 0.5 phenylmethylsulfonyl fluoride, pH 7.0). Protein content was measured in an aliquot of the homogenate by Bradford method. In some experiments, cells and vessels were pre-incubated with pharmacological inhibitors before measurements. The reaction was started by the addition of NADPH (0.1 mmol/l) and lucigenin (5 μmol/l) to each well. The chemiluminescence was measured using Tecan Infinite Pro M200 multimode microplate at 37° C.
as §1, §2

Row | Compound | direct vasorelaxant action of single anthocyanin, compared with Healthberry 865® (mice mesenteric arteries) | Angiotensin II-induced ROS formation [2] | NADPH oxidase (NOX) activity after stimulation with Angiotensin II (NADPH oxidase) | also measured
1 | OC[C@H]1OC(Oc2cc3c(O)cc(O)cc3[o+]c2-c2ccc(O)c(O)c2)[C@H](O)C(O)C1O (stereo partly shown) [C3-gal, Cyanidin-3-galactoside] | able to reproduce the direct vasorelaxant effect | – | – | nitric oxide production (DAF-FM fluorescence) [1]: significant increase of nitric oxide production; vasorelaxant effect in presence of Dorsomorphin (AMPK inhibitor) (mice mesenteric arteries): completely lost its vasorelaxant capability; vasorelaxant effect in presence of Akt inhibitor (mice mesenteric arteries): did not inhibit; vasorelaxant effect in presence of L-NAME (eNOS inhibitor) (mice mesenteric arteries): significantly reduced; vasorelaxant effect in presence of PI3K inhibitor LY294002 (mice mesenteric arteries): did not inhibit
2 | OC[C@H]1O[C@@H](Oc2cc3c(O)cc(O)cc3[o+]c2-c2ccc(O)c(O)c2)[C@H](O)[C@@H](O)[C@@H]1O [C3-glu, Cyanidin-3-glucoside] | none of the single anthocyanins was able to evoke a dose-dependent vasorelaxation comparable | able to reproduce the antioxidant action | able to reduce NOX activity | rank of NOX activity reduction among single anthocyanins relative to Healthberry 865® (NADPH oxidase): most powerful anthocyanins
3 | C[C@@H]1O[C@@H](OC[C@H]2O[C@@H](Oc3cc4c(O)cc(O)cc4[o+]c3-c3ccc(O)c(O)c3)[C@H](O)[C@@H](O)[C@@H]2O)[C@H](O)[C@H](O)[C@H]1O [C3-rut, Cyanidin-3-rutinoside] | none of the single anthocyanins was able to evoke a dose-dependent vasorelaxation comparable; also recorded: vasorelaxant effects | able to reproduce the antioxidant action | able to reduce NOX activity | vasorelaxation reached by single anthocyanin (mice mesenteric arteries): ~36.5%
4 | Oc1cc(O)c2cc(O[C@H]3OC[C@H](O)[C@H](O)[C@H]3O)c(-c3cc(O)c(O)c(O)c3)[o+]c2c1 [DP3-ara, Delphinidin-3-arabinoside] | none of the single anthocyanins was able to evoke a dose-dependent vasorelaxation comparable; also recorded: vasorelaxant effects | – | – | –
5 | OC[C@H]1O[C@@H](Oc2cc3c(O)cc(O)cc3[o+]c2-c2cc(O)c(O)c(O)c2)[C@H](O)[C@@H](O)[C@H]1O [DP3-gal, Delphinidin-3-galactoside] | none of the single anthocyanins was able to evoke a dose-dependent vasorelaxation comparable; also recorded: vasorelaxant effects | – | – | vasorelaxation reached by single anthocyanin (mice mesenteric arteries): about 32.5%
6 | OC[C@H]1O[C@@H](Oc2cc3c(O)cc(O)cc3[o+]c2-c2cc(O)c(O)c(O)c2)[C@H](O)[C@@H](O)[C@@H]1O [DP3-glu, Delphinidin-3-glucoside] | none of the single anthocyanins was able to evoke a dose-dependent vasorelaxation comparable | able to reproduce the antioxidant action | able to reduce NOX activity | –
7 | OC[C@H]1O[C@@H](Oc2cc3c(O)cc(O)cc3[o+]c2-c2cc(O)c(O)c(O)c2)[C@H](O[C@@H]2OC[C@@H](O)[C@H](O)[C@H]2O)[C@@H](O)[C@@H]1O [DP3-samb, Delphinidin-3-sambubioside] | able to reproduce the direct vasorelaxant effect | – | – | nitric oxide production (DAF-FM fluorescence) [1]: significant increase of nitric oxide production; vasorelaxant effect in presence of Dorsomorphin (AMPK inhibitor) (mice mesenteric arteries): inhibited; vasorelaxant effect in presence of Akt inhibitor (mice mesenteric arteries): did not influence; vasorelaxant effect in presence of L-NAME (eNOS inhibitor) (mice mesenteric arteries): significantly reduced; vasorelaxant effect in presence of PI3K inhibitor LY294002 (mice mesenteric arteries): inhibited
8 | COc1cc(-c2[o+]c3cc(O)cc(O)c3cc2O[C@@H]2O[C@H](CO)[C@H](O)[C@H](O)[C@H]2O)cc(OC)c1O [MAL3-gal, Malvidin-3-galactoside] | none of the single anthocyanins was able to evoke a dose-dependent vasorelaxation comparable | able to reproduce the antioxidant action | able to reduce NOX activity | –
9 | COc1cc(-c2[o+]c3cc(O)cc(O)c3cc2O[C@@H]2O[C@H](CO)[C@@H](O)[C@H](O)[C@H]2O)cc(OC)c1O [MAL3-glu, Malvidin-3-glucoside] | none of the single anthocyanins was able to evoke a dose-dependent vasorelaxation comparable | able to reproduce the antioxidant action | able to reduce NOX activity | rank of NOX activity reduction among single anthocyanins relative to Healthberry 865® (NADPH oxidase): most powerful anthocyanins
10 | COc1cc(-c2[o+]c3cc(O)cc(O)c3cc2O[C@@H]2O[C@H](CO)[C@@H](O)[C@H](O)[C@H]2O)cc(O)c1O [PT3-glu, Petunidin-3-glucoside] | none of the single anthocyanins was able to evoke a dose-dependent vasorelaxation comparable | – | – | –
11 | Peonidin-3-galactoside [PEO3-gal] | none of the single anthocyanins was able to evoke a dose-dependent vasorelaxation comparable | able to reproduce the antioxidant action | able to reduce NOX activity | –
